Test results from patent US11040958B2, “Triazole antimicrobial derivative, pharmaceutical composition and use thereof” (priority 2017, dated 2021).

Tests used:
[1] = In vitro metabolic stability in human plasma; type: in vitro ADME; conditions: human, plasma; 37°C, compound 10 μM; read-out: Human plasma T1/2
Description: The two reaction systems were set up three samples in parallel, while each sample was taken in an amount of 100 μL at 1 min, 2 mins, 5 mins, 15 mins, and 30 mins after the reaction, added to the centrifuge tube containing 400 μL of 0° C. pre-cooled internal standard working fluid and terminated the reaction. The sample was mixed by vortex for 1 min, centrifuged at 10,000×g for 10 mins in a 4° C. pre-cooled high-speed centrifuge. The supernatant was taken for HPLC detection.

[2] = In vitro metabolic stability in human intestinal S9; type: in vitro ADME; conditions: human, intestinal S9; 37°C, S9 1 mg/mL, compound 10 μM, NADPH regeneration system; read-out: Human intestinal S9 T1/2
Description: (§1) The two reaction systems were set up three samples in parallel, while each sample was taken in an amount of 100 μL at 1 min, 2 mins, 5 mins, 15 mins, and 30 mins after the reaction, added to the centrifuge tube containing 400 μL of 0° C. pre-cooled internal standard working fluid and terminated the reaction. The sample was mixed by vortex for 1 min, centrifuged at 10,000×g for 10 mins in a 4° C. pre-cooled high-speed centrifuge. The supernatant was taken for HPLC detection. […] Concentration of mother liquor of compounds: 1 mM […] [table]

[3] = In vitro metabolic stability in rat plasma; type: in vitro ADME; conditions: rat, plasma; 37°C, compound 10 μM; read-out: Rat plasma T1/2
Description: The two reaction systems were set up three samples in parallel, while each sample was taken in an amount of 100 μL at 1 min, 2 mins, 5 mins, 15 mins, and 30 mins after the reaction, added to the centrifuge tube containing 400 μL of 0° C. pre-cooled internal standard working fluid and terminated the reaction. The sample was mixed by vortex for 1 min, centrifuged at 10,000×g for 10 mins in a 4° C. pre-cooled high-speed centrifuge. The supernatant was taken for HPLC detection. […] Concentration of mother liquor of compounds: 1 mM […]

[4] = In vitro metabolic stability in rat intestinal S9; type: in vitro ADME; conditions: rat, intestinal S9, pH 7.4; 37°C, S9 1 mg/mL, compound 10 μM, NADPH regeneration system; read-out: Rat intestinal S9 T1/2
Description: as §1

[5] = Solid stability test (25°C, RH 60%, 30 days); type: physicochemical; conditions: 25°C±2°C, relative humidity 60%±2%
[6] = Pharmacokinetics after single intravenous administration in rats (plasma voriconazole); conditions: both, SD, rat, in vivo, iv, 2.5 mg/kg
In short: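 SD rats (180–220 g, 3 male/3 female per group) given single tail-vein dose of 2.5 mg/kg (as voriconazole). Plasma voriconazole measured in blood sampled at multiple time points post-dose.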

[7] = tested on: Candida albicans ATCC10231; test: Systemic fungal infection in mice, administration by gavage, survival; type: in vivo; conditions: ICR mice, 5 mg/kg (calculated as voriconazole) once daily for 5 days
In short: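 Male ICR mice (18-22 g) infected via tail vein with C. albicans ATCC10231 at 5*10^6/ml, 0.1 ml/10 g. Starting 2 h post-infection, 5 mg/kg (as voriconazole) given by gavage once daily for 5 days; saline for model group. Groups of 10; survival time recorded over 7 days.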

CC(OC(=O)SCCO)[n+]1cnn(C[C@](O)(c2ccc(F)cc2F)[C@@H](C)c2ncncc2F)c1 (some centres unmarked) [Compound 16037] gave a half-life at 10 µM [1] of 7.75 ± 0.56 min, a half-life at 10 µM [2] of 10.8 ± 1.97 min and a half-life at 10 µM [3] of 7.65 ± 0.78 min. The half-life at 10 µM [4] was 16 ± 6.88 min, the “Content increase of total impurity (25° C., placed for 30 days)” value [5] was 2.15% and the AUClast [6] was 9120 ± 3254 ng·h/mL. For the same molecule, the T1/2 [6] was 2.47 ± 0.75 h, the “survival rate of mice, day 1” value ([7]; day 1) was 100% and the “survival rate of mice, day 2” value ([7]; day 2) was 100%. For the same molecule, the “survival rate of mice, day 3” value ([7]; day 3) was 100%, the “survival rate of mice, day 4” value ([7]; day 4) was 100% and the “survival rate of mice, day 5” value ([7]; day 5) was 90%. The “survival rate of mice, day 6” value ([7]; day 6) was 80% and the “survival rate of mice, day 7” value ([7]; day 7) was 80%.
